In brackets after ≈: the same amount, converted by molar mass.
Experiments:
PylpC promoter = experiment: lacZ reporter assay of promoter induction, strain PY79(amy::PylpC::lacZ, cat); format: cell-based, B. subtilis; details: various concentrations, 96-well microplate, 3 hours (FIG. 8)
Excerpt: (§1) Clones containing the PyhfB, PyjaXY, and PylpC promoters have been described in GenBank, and the accession numbers for these clones are set forth in Table 2.
(§2) The reporter strains used in these assays were constructed as follows. PCR products containing the promoters were digested with EcoRI and BamHI, and cloned into the multiple cloning site of pDG268, which also had been digested with EcoRI and BamHI. The plasmid pDG268 is a derivative of pGD364 (See, Cutting and Van der Horn, Molecular Biological Methods for Bacillus, eds. C. R. Harwood and S. M. Cutting, 1990, John Wiley and Sons, NY, N.Y., pp. 52-54). […]
(§3) The reporter strains were incubated, separately, with triclosan or cerulenin at various concentrations, as shown on the X-axes depicted in FIGS. 7 and 8. Each strain and an antibacterial agent were incubated in a 96-well microplate for 3 hours. β-galactosidase activity was detected using the Tropix Galacton Star™ chemiluminescent substrate (3-chloro-5-(4-methoxyspiro{1,2-dioxetane-3,2′-(4′chloro)-tricyclo-[3.3.1.1^3,7]decan}-4-yl)phenyl-B-D-galactopyranoside) and the detection method described below. The fold induction of promoter activity was calculated as the level of activity in the samples containing the antibacterial agent divided by the level of activity in the samples that lacked the agent. […]

[1] = test system: PyhfB, PyjaXY, PylpC, and PyydK promoters; experiment: RNA (transcriptional) profiling of bacterial cells treated with FAB pathway inhibitors; format: cell-based, B. subtilis; details: cerulenin 0.5 or 5 μg/ml, triclosan 0.1 or 1 μg/ml; LB medium, 37° C., 10, 30, or 60 minutes
Excerpt: Genetic Constructs: Conventional transcriptional profiling methods can be used to identify promoters that have increased activity in the presence of antibacterial agents such as cerulenin and triclosan, which are inhibitors of FAB.

PyhfB promoter = experiment: lacZ reporter assay of promoter induction, strain PY79(amy::PyhfB::lacZ, cat); format: cell-based, B. subtilis; details: various concentrations, 96-well microplate, 3 hours (FIG. 7)
Excerpt: as §1, §2, §3

[2] = test system: B. subtilis reporter strains PY79(amy::PyhfB::lacZ, cat) and PY79(amy::PylpC::lacZ, cat); experiment: Minimum inhibitory concentration (MIC) determination in 96-well microtiter plate, OD600 read; format: cell-based; details: Bacillus subtilis, 18 h, read-out: minimum inhibitory concentration (MIC)
Method: The minimum inhibitory concentrations (MIC) for cerulenin and triclosan were determined for each of the reporter strains. To determine the MIC, a compound of interest (e.g., cerulenin or triclosan) was placed in a 96-well microtiter plate such that the concentration of the compound varies in various wells of the plate (e.g., by using a series of 2-fold dilutions of the compound). Approximately 5,000 cells from a logarithmically-growing culture (e.g., the B. subtilis strain PY79) in Luria broth were added to each well (e.g., in a volume of 50-80 μl). The plate then was incubated at 37° C. for approximately 18 hours. The OD600 was then read to measure cell growth in each well of the plate. The lowest concentration of the compound that leads to complete killing of the culture (i.e., the concentration of compound for which the OD600 nm is equal to a control well that contains only media and the test compound) is deemed the MIC for the particular compound and bacterial strain. The MICs for cerulenin and triclosan were 12.5 μg/ml and 5 μg/ml, respectively, for both of the reporter strains. Such inhibitors can be used as lead compounds, which can subsequently be derivatized using standard medicinal chemistry techniques to produce antibacterial agents.

| Compound | activity of the PylpC promoter (lacZ reporter, β-galactosidase chemiluminescence) (PylpC promoter) | activity of the PyhfB, PyjaXY, PylpC, and PyydK promoters (RNA profiling) [1] | activity of the PyhfB promoter (lacZ reporter, β-galactosidase chemiluminescence) (PyhfB promoter) | MIC [2] |
| --- | --- | --- | --- | --- |
| C/C=C/C/C=C/CCC(=O)[C@H]1O[C@H]1C(N)=O [cerulenin, 2,3-Epoxy-4-oxo-7,1-dodecadienamide] | increase the activity | increase in activity | increase the activity | 12.5 µg/mL (≈ 56 µM) |
| Oc1cc(Cl)ccc1Oc1ccc(Cl)cc1Cl [triclosan] | increase the activity | increase in activity | increase the activity | 5 µg/mL (≈ 17.3 µM) |
